Reference: patent US9889113B2, “Method for reversing, preventing, delaying or stabilizing soft tissue calcification” (Panion & BF Biotech, Inc., priority 2006, dated 2018)

Test system: patients with end stage renal disease (ESRD)
Experiment: Treatment-emergent adverse events in the dose-ranging study
Type: in vivo, human
Excerpt: Objectives: (1) To determine the effect of ferric citrate at doses of 2, 4 and 6 g daily, administered TID (three times a day), for 28 days on serum phosphate (PO4) levels in patients with end stage renal disease (ESRD). (2) To evaluate the safety of ferric citrate at doses of 2, 4, 6 g daily, administered TID, for 28 days in patients with ESRD.
Study Design: Randomized, double-blind, placebo-controlled, dose-ranging study to assess the effect of ferric citrate on serum phosphate concentrations in patients with ESRD on hemodialysis. Patients are assessed at Study Days 14 and 28 for effectiveness as measured by serum phosphate concentrations. Patients who received one or more doses of study medication are also assessed for safety.

O=C([O-])CC(O)(CC(=O)[O-])C(=O)[O-].[Fe+3] [ferric citrate]
Abdominal Pain (Preferred Term): # Event (2 g/day (N = 33)): 0 | Abdominal Pain (Preferred Term): (%) (2 g/day (N = 33)): (0.0) % | Diarrhea (Preferred Term): # Event (2 g/day (N = 33)): 3 | Diarrhea (Preferred Term): (%) (2 g/day (N = 33)): (9.1) % | GI Disorder, Definitely (relationship): # Event (2 g/day (N = 33)): 0 | GI Disorder, Definitely (relationship): (%) (2 g/day (N = 33)): (0.0) % | GI Disorder, Possibly (relationship): # Event (2 g/day (N = 33)): 3 | GI Disorder, Possibly (relationship): (%) (2 g/day (N = 33)): (9.1) % | GI Disorder, Probably (relationship): # Event (2 g/day (N = 33)): 2 | GI Disorder, Probably (relationship): (%) (2 g/day (N = 33)): (6.1) % | GI Disorders (System Organ Class): # Event (2 g/day (N = 33)): 8 | GI Disorders (System Organ Class): (%) (2 g/day (N = 33)): (24.2) % | GI Disorders, Mild (severity): # Event (2 g/day (N = 33)): 6 | GI Disorders, Mild (severity): (%) (2 g/day (N = 33)): (18.2) % | General Disorders (System Organ Class): # Event (2 g/day (N = 33)): 4 | General Disorders (System Organ Class): (%) (2 g/day (N = 33)): (12.1) % | Infections and Infestations (System Organ Class): # Event (2 g/day (N = 33)): 0 | Infections and Infestations (System Organ Class): (%) (2 g/day (N = 33)): (0.0) % | Skin and SC Tissue Disorders (System Organ Class): # Event (2 g/day (N = 33)): 3 | Skin and SC Tissue Disorders (System Organ Class): (%) (2 g/day (N = 33)): (9.1) % | T#at1AE, Definitely (relationship): # Event (2 g/day (N = 33)): 0 | T#at1AE, Definitely (relationship): (%) (2 g/day (N = 33)): (0.0) % | T#at1AE, Mild (severity): # Event (2 g/day (N = 33)): 13 | T#at1AE, Mild (severity): (%) (2 g/day (N = 33)): (39.4) % | T#at1AE, Moderate (severity): # Event (2 g/day (N = 33)): 6 | T#at1AE, Moderate (severity): (%) (2 g/day (N = 33)): (18.2) % | T#at1AE, Possibly (relationship): # Event (2 g/day (N = 33)): 5 | T#at1AE, Possibly (relationship): (%) (2 g/day (N = 33)): (15.2) % | T#at1AE, Probably (relationship): # Event (2 g/day (N = 33)): 2 | T#at1AE, Probably (relationship): (%) (2 g/day (N = 33)): (6.1) % | T#at1AE, Severe (severity): # Event (2 g/day (N = 33)): 0 | T#at1AE, Severe (severity): (%) (2 g/day (N = 33)): (0.0) % | Total number of subjects with at least one adverse event (T#at1AE): # Event (2 g/day (N = 33)): 16 | Total number of subjects with at least one adverse event (T#at1AE): (%) (2 g/day (N = 33)): (48.5) % | Abdominal Pain (Preferred Term): # Event (4 g/day (N = 34)): 4 | Abdominal Pain (Preferred Term): (%) (4 g/day (N = 34)): (11.8) % | Diarrhea (Preferred Term): # Event (4 g/day (N = 34)): 1 | Diarrhea (Preferred Term): (%) (4 g/day (N = 34)): (2.9) % | GI Disorder, Definitely (relationship): # Event (4 g/day (N = 34)): 0 | GI Disorder, Definitely (relationship): (%) (4 g/day (N = 34)): (0.0) % | GI Disorder, Possibly (relationship): # Event (4 g/day (N = 34)): 6 | GI Disorder, Possibly (relationship): (%) (4 g/day (N = 34)): (17.6) % | GI Disorder, Probably (relationship): # Event (4 g/day (N = 34)): 2 | GI Disorder, Probably (relationship): (%) (4 g/day (N = 34)): (5.9) % | GI Disorders (System Organ Class): # Event (4 g/day (N = 34)): 10 | GI Disorders (System Organ Class): (%) (4 g/day (N = 34)): (29.4) % | GI Disorders, Mild (severity): # Event (4 g/day (N = 34)): 8 | GI Disorders, Mild (severity): (%) (4 g/day (N = 34)): (23.5) % | General Disorders (System Organ Class): # Event (4 g/day (N = 34)): 2 | General Disorders (System Organ Class): (%) (4 g/day (N = 34)): (5.9) % | Infections and Infestations (System Organ Class): # Event (4 g/day (N = 34)): 3 | Infections and Infestations (System Organ Class): (%) (4 g/day (N = 34)): (8.8) % | Skin and SC Tissue Disorders (System Organ Class): # Event (4 g/day (N = 34)): 0 | Skin and SC Tissue Disorders (System Organ Class): (%) (4 g/day (N = 34)): (0.0) % | T#at1AE, Definitely (relationship): # Event (4 g/day (N = 34)): 0 | T#at1AE, Definitely (relationship): (%) (4 g/day (N = 34)): (0.0) % | T#at1AE, Mild (severity): # Event (4 g/day (N = 34)): 9 | T#at1AE, Mild (severity): (%) (4 g/day (N = 34)): (26.5) % | T#at1AE, Moderate (severity): # Event (4 g/day (N = 34)): 3 | T#at1AE, Moderate (severity): (%) (4 g/day (N = 34)): (8.8) % | T#at1AE, Possibly (relationship): # Event (4 g/day (N = 34)): 6 | T#at1AE, Possibly (relationship): (%) (4 g/day (N = 34)): (17.6) % | T#at1AE, Probably (relationship): # Event (4 g/day (N = 34)): 2 | T#at1AE, Probably (relationship): (%) (4 g/day (N = 34)): (5.9) % | T#at1AE, Severe (severity): # Event (4 g/day (N = 34)): 2 | T#at1AE, Severe (severity): (%) (4 g/day (N = 34)): (5.9) % | Total number of subjects with at least one adverse event (T#at1AE): # Event (4 g/day (N = 34)): 12 | Total number of subjects with at least one adverse event (T#at1AE): (%) (4 g/day (N = 34)): (35.3) % | Abdominal Pain (Preferred Term): # Event (6 g/day (N = 33)): 2 | Abdominal Pain (Preferred Term): (%) (6 g/day (N = 33)): (6.1) % | Diarrhea (Preferred Term): # Event (6 g/day (N = 33)): 1 | Diarrhea (Preferred Term): (%) (6 g/day (N = 33)): (3.0) % | GI Disorder, Definitely (relationship): # Event (6 g/day (N = 33)): 0 | GI Disorder, Definitely (relationship): (%) (6 g/day (N = 33)): (0.0) % | GI Disorder, Possibly (relationship): # Event (6 g/day (N = 33)): 1 | GI Disorder, Possibly (relationship): (%) (6 g/day (N = 33)): (3.0) % | GI Disorder, Probably (relationship): # Event (6 g/day (N = 33)): 5 | GI Disorder, Probably (relationship): (%) (6 g/day (N = 33)): (15.2) % | GI Disorders (System Organ Class): # Event (6 g/day (N = 33)): 10 | GI Disorders (System Organ Class): (%) (6 g/day (N = 33)): (30.3) % | GI Disorders, Mild (severity): # Event (6 g/day (N = 33)): 9 | GI Disorders, Mild (severity): (%) (6 g/day (N = 33)): (27.3) % | General Disorders (System Organ Class): # Event (6 g/day (N = 33)): 4 | General Disorders (System Organ Class): (%) (6 g/day (N = 33)): (12.1) % | Infections and Infestations (System Organ Class): # Event (6 g/day (N = 33)): 1 | Infections and Infestations (System Organ Class): (%) (6 g/day (N = 33)): (3.0) % | Skin and SC Tissue Disorders (System Organ Class): # Event (6 g/day (N = 33)): 4 | Skin and SC Tissue Disorders (System Organ Class): (%) (6 g/day (N = 33)): (12.1) % | T#at1AE, Definitely (relationship): # Event (6 g/day (N = 33)): 0 | T#at1AE, Definitely (relationship): (%) (6 g/day (N = 33)): (0.0) % | T#at1AE, Mild (severity): # Event (6 g/day (N = 33)): 14 | T#at1AE, Mild (severity): (%) (6 g/day (N = 33)): (42.4) % | T#at1AE, Moderate (severity): # Event (6 g/day (N = 33)): 2 | T#at1AE, Moderate (severity): (%) (6 g/day (N = 33)): (6.1) % | T#at1AE, Possibly (relationship): # Event (6 g/day (N = 33)): 2 | T#at1AE, Possibly (relationship): (%) (6 g/day (N = 33)): (6.1) % | T#at1AE, Probably (relationship): # Event (6 g/day (N = 33)): 5 | T#at1AE, Probably (relationship): (%) (6 g/day (N = 33)): (15.2) % | T#at1AE, Severe (severity): # Event (6 g/day (N = 33)): 1 | T#at1AE, Severe (severity): (%) (6 g/day (N = 33)): (3.0) % | Total number of subjects with at least one adverse event (T#at1AE): # Event (6 g/day (N = 33)): 17 | Total number of subjects with at least one adverse event (T#at1AE): (%) (6 g/day (N = 33)): (51.5) % | side effect (Phase II study): minimum side effect
